These results are taken from patent publication US10316050B2, “PT (IV) complexes containing 4,4′-disubstituted-2,2′-bipyridyl and their use in cancer therapy” (THE BOARD OF REGENTS OF THE NEVADA SYSTEM OF HIGHER …, priority 2014, dated 2019).

Common to all, as to type: cell-based, human
Assay [1] deals with phosphorylated H2AX (γH2AX) in A549 cells. As to the kind of experiment: Flow cytometry of phosphorylated H2AX, A549. The settings on record: A549, 25 μM Pt(IV)-4C or 7.5 μM Pt(IV)-5C for 6 hours, analyzed 12 hours post treatment. The procedure:
(§1) FIG. 9 is a series of graphs plotting Pt(IV) complex-induced phosphorylation of H2AX in A549 cells (top panels) and DU145 cells (bottom panels). A549 cells were treated with control (left), 25 μM Pt(IV)-4C (center), or 7.5 μM Pt(IV)-5C (right) for 6 hours, and analyzed 12 hours post treatment. DU145 cells were treated for 2 hours with control (left), 10 μM Pt(IV)-4C (center), or 2.5 μM Pt(IV)-5C (right), and analyzed 7 hours post treatment. Data are representative of three independent experiments.
(§2) Cells (200,000 to 250,000) were seeded in 60 mm dishes and incubated at 37° C. in a humidified, 5% CO2 atmosphere for 2 days to reach ˜50-60% confluence. The cells were treated with the platinum complexes as indicated, the floating cells were collected, and both attached and floating cells were washed 2× with PBS. The cells were resuspended in fresh medium and incubated as indicated. After incubation, both the floating and attached cells were collected and fixed by incubation in 4% formaldehyde for 10 minutes at room temperature. The fixed cells were pelleted and permeabilized by incubation in 500 μL of ice-cold methanol at 4° C. for 10 minutes. The samples were stored at −20° C. until analysis. For analysis, the cells were pelleted and washed 2× with 1% BSA in PBS. […] After washing 2× with 1% BSA, the cells were resuspended in PBS and analyzed on a Becton Dickinson FACS Calibur. […]

For assay [2], the system named is cleaved-PARP in DU145 cells. As to the kind of experiment: Flow cytometry of cleaved-PARP, DU145. The conditions noted are these: DU145, 10 μM Pt(IV)-4C or 2.5 μM Pt(IV)-5C for 2 hours, analyzed seven hours post treatment. On the procedure: FIG. 12 is a series of histograms indicating Pt(IV)-4C and Pt(IV)-5C-induced cleavage of PARP in A549 cells (top panels) and in DU145 cells (bottom). A549 cells were treated for 5 hours with control (left), 25 μM Pt(IV)-4C (center), or 7.5 μM Pt(IV)-5C (right), and analyzed 12 hours post treatment. DU145 cells were treated for 2 hours with control (left), 10 μM Pt(IV)-4C (center), or 2.5 μM Pt(IV)-5C (right), and analyzed seven hours post treatment. Data are representative of three independent experiments.
as §2

Assay [3] relates to DU145 cells. As to the kind of experiment: Cell cycle analysis, propidium iodide flow cytometry, DU145. The conditions noted are these: DU145, 10 μM Pt(IV)-4C or 2.5 μM Pt(IV)-5C for 1 hour, analyzed 12 hours post treatment. The procedure: FIG. 10 is a series of plots from a cell cycle analysis of A549 cells (top) and DU145 cells (bottom) cells treated with Pt(IV)-4C and Pt(IV)-5C. A549 cells were treated for 5 hours with control (left), 25 μM Pt(IV)-4C (center), or 7.5 μM Pt(IV)-5C (right), and analyzed 12 hours post treatment. DU145 cells were treated for 1 hour with control (left), 10 μM Pt(IV)-4C (center), or 2.5 μM Pt(IV)-5C (right), and analyzed 12 hours post treatment. Data are representative of three independent experiments.
Cells (˜50 to 60% confluent in 60 mm dishes) were treated as indicated with the platinum compound. After treatment, the floating cells were collected, and both attached and floating cells were washed 2× with PBS. The cells were resuspended in fresh medium and incubated as indicated. The cells were harvested (both the floating and attached cells were collected), counted, and pelleted. The cells were then washed two times with 5 mL PBS, fixed by resuspending in 0.1 mL of PBS and 1 mL of ice-cold 95% ethanol with gentle vortexing. Fixed cells were stored at 4° C. until analysis. For analysis, fixed cells were washed once with 1-2 mL of PBS and centrifuged at 500×g for 5 minutes. The cell pellet was resuspended in 100 μL of a 1.0% Triton X-100 buffer solution, and 100 μL of a 1.0 mg/mL RNAse solution was added and allowed to stand at room temperature for 10-15 minutes. […]

The subject of assay [4] is phosphorylated H2AX (γH2AX) in DU145 cells. As to the kind of experiment: Flow cytometry of phosphorylated H2AX, DU145. The conditions noted are these: DU145, 10 μM Pt(IV)-4C or 2.5 μM Pt(IV)-5C for 2 hours, analyzed 7 hours post treatment. The procedure:
as §1, §2

As for `CC(=O)[O][Pt]([Cl])([Cl])[O]C(C)=O.CCCCCOc1ccnc(-c2cc(OCCCCC)ccn2)c1` [Pt(IV)-5C, [Pt(IV)Cl2(OAc)2(4,4′-dipentoxy-2,2′-bipyridine)]], the “level of phosphorylated H2AX (γH2AX)” value in assay [1] and in assay [4] was “increase of γH2AX” each time. Also, in assay [2], the “fold increase of cleaved-PARP” value is reported as about 2 fold. In addition, in assay [3], the “effect on the cell cycle / sub-G1 peak” value is recorded as “did not affect the cell cycle”.

In the case of “[Pt(IV)Cl2(OAc)2(4,4′-dibutoxy-2,2′-bipyridine)] [Pt(IV)-4C]”, the “level of phosphorylated H2AX (γH2AX)” value in assay [1] and in assay [4] was “increase of γH2AX” throughout. Moreover, the “fold increase of cleaved-PARP” value in assay [2] is given as about 2 fold. Also, the “effect on the cell cycle / sub-G1 peak” value in assay [3] was “did not affect the cell cycle”.
